In brackets after ≈: the same amount, converted by molar mass.
Legend:
Type in all cases: functional
[1] = system: Streptococcus salivarius; assay: Antimicrobial activity against viridans group Streptococcus salivarius at 1 ug/ml by broth microdilution method
[2] = system: Listeria monocytogenes; assay: Antimicrobial activity against Listeria monocytogenes at 0.5 ug/ml by broth microdilution method
[3] = system: Enterococcus hirae; assay: Antimicrobial activity against Enterococcus hirae at 2 ug/ml by broth microdilution method
[4] = system: Streptococcus; assay: Antimicrobial activity against beta hemolytic Streptococci group G at 0.12 ug/ml by broth microdilution method
[5] = system: Micrococcus luteus; assay: Antimicrobial activity against Micrococcus luteus at 0.25 ug/ml by broth microdilution method
[6] = system: Rothia mucilaginosa; assay: Antimicrobial activity against Rothia mucilaginosa at 1 ug/ml by broth microdilution method
[7] = system: Streptococcus sanguinis; assay: Antimicrobial activity against viridans group Streptococcus sanguinis at <= 0.06 ug/ml by broth microdilution method
[8] = system: Bacillus sp.; assay: Antimicrobial activity against Bacillus spp. at 0.12 ug/ml by broth microdilution method; details: Bacillus sp. (in: firmicutes)
[9] = system: Streptococcus equinus; assay: Antimicrobial activity against viridans group Streptococcus bovis at 0.5 ug/ml by broth microdilution method
[10] = system: Streptococcus oralis; assay: Antimicrobial activity against viridans group Streptococcus oralis at 0.5 ug/ml by broth microdilution method
[11] = system: Streptococcus sanguinis; assay: Antimicrobial activity against viridans group Streptococcus sanguinis by broth microdilution method
[12] = system: Streptococcus vestibularis; assay: Antimicrobial activity against viridans group Streptococcus vestibularis by broth microdilution method
[13] = system: Enterococcus gallinarum; assay: Antimicrobial activity against Enterococcus gallinarum at 0.5 ug/ml by broth microdilution method
[14] = system: Enterococcus gallinarum; assay: Antimicrobial activity against Enterococcus gallinarum by broth microdilution method
[15] = system: Streptococcus oralis; assay: Antimicrobial activity against viridans group Streptococcus oralis at by broth microdilution method
[16] = system: Streptococcus constellatus; assay: Antimicrobial activity against viridans group Streptococcus constellatus by broth microdilution method
[17] = system: Streptococcus equinus; assay: Antimicrobial activity against viridans group Streptococcus bovis by broth microdilution method
[18] = system: Corynebacterium jeikeium; assay: Antimicrobial activity against Corynebacterium jeikeium at 0.12 ug/ml by broth microdilution method
[19] = system: Streptococcus; assay: Antimicrobial activity against beta hemolytic Streptococci group G at 0.5 ug/ml by broth microdilution method
[20] = system: Streptococcus gordonii; assay: Antimicrobial activity against viridans group Streptococcus gordonii at 0.12 ug/ml by broth microdilution method
[21] = system: Corynebacterium amycolatum; assay: Antimicrobial activity against Corynebacterium amycolatum at 0.25 ug/ml by broth microdilution method
[22] = system: Aerococcus; assay: Antimicrobial activity against Aerococcus spp. at 0.25 ug/ml by broth microdilution method
[23] = system: Bacillus sp.; assay: Antimicrobial activity against Bacillus spp. at 2 ug/ml by broth microdilution method; details: Bacillus sp. (in: firmicutes)
[24] = system: Streptococcus salivarius; assay: Antimicrobial activity against viridans group Streptococcus salivarius at 0.25 ug/ml by broth microdilution method
[25] = system: Streptococcus anginosus; assay: Antimicrobial activity against viridans group Streptococcus anginosus at 0.5 ug/ml by broth microdilution method
[26] = system: Enterococcus durans; assay: Antimicrobial activity against Enterococcus durans by broth microdilution method
[27] = system: Streptococcus sanguinis; assay: Antimicrobial activity against viridans group Streptococcus sanguinis at 1 ug/ml by broth microdilution method
[28] = system: Streptococcus oralis; assay: Antimicrobial activity against viridans group Streptococcus oralis at 1 ug/ml by broth microdilution method
[29] = system: Enterococcus hirae; assay: Antimicrobial activity against Enterococcus hirae at 0.5 ug/ml by broth microdilution method
[30] = system: Enterococcus casseliflavus; assay: Antimicrobial activity against Enterococcus casseliflavus at 1 ug/ml by broth microdilution method
[31] = system: Corynebacterium sp.; assay: Antimicrobial activity against Corynebacterium spp. at 0.5 ug/ml by broth microdilution method
[32] = system: Streptococcus mutans; assay: Antimicrobial activity against viridans group Streptococcus mutans at 0.5 ug/ml by broth microdilution method
[33] = system: Streptococcus constellatus; assay: Antimicrobial activity against viridans group Streptococcus constellatus at 0.5 ug/ml by broth microdilution method
[34] = system: Streptococcus gordonii; assay: Antimicrobial activity against viridans group Streptococcus gordonii at <= 0.06 ug/ml by broth microdilution method
[35] = system: Bacillus sp.; assay: Antimicrobial activity against Bacillus spp. at 1 ug/ml by broth microdilution method; details: Bacillus sp. (in: firmicutes)
[36] = system: Corynebacterium sp.; assay: Antimicrobial activity against Corynebacterium spp. by broth microdilution method
[37] = system: Corynebacterium sp.; assay: Antimicrobial activity against Corynebacterium spp. at 0.25 ug/ml by broth microdilution method
[38] = system: Rothia mucilaginosa; assay: Antimicrobial activity against Rothia mucilaginosa at 0.25 ug/ml by broth microdilution method
[39] = system: Streptococcus oralis; assay: Antimicrobial activity against viridans group Streptococcus oralis with G2576T rRNA mutation at 4 ug/ml by broth microdilution method
[40] = system: Enterococcus raffinosus; assay: Antimicrobial activity against Enterococcus raffinosus at <= 0.06 ug/ml by broth microdilution method
[41] = system: Enterococcus avium; assay: Antimicrobial activity against Enterococcus avium at 1 ug/ml by broth microdilution method
[42] = system: Bacillus cereus; assay: Antimicrobial activity against Bacillus cereus at 0.12 ug/ml by broth microdilution method
[43] = system: Streptococcus anginosus; assay: Antimicrobial activity against viridans group Streptococcus anginosus by broth microdilution method
[44] = system: Streptococcus mutans; assay: Antimicrobial activity against viridans group Streptococcus mutans at 2 ug/ml by broth microdilution method
[45] = system: Aerococcus; assay: Antimicrobial activity against Aerococcus spp. at 0.5 ug/ml by broth microdilution method
[46] = system: Enterococcus casseliflavus; assay: Antimicrobial activity against Enterococcus casseliflavus at 0.5 ug/ml by broth microdilution method
[47] = system: Enterococcus hirae; assay: Antimicrobial activity against Enterococcus hirae at <= 0.06 ug/ml by broth microdilution method
[48] = system: Enterococcus gallinarum; assay: Antimicrobial activity against Enterococcus gallinarum at 1 ug/ml by broth microdilution method
[49] = system: Corynebacterium sp.; assay: Antimicrobial activity against Corynebacterium spp. at 0.12 ug/ml by broth microdilution method
[50] = system: Streptococcus vestibularis; assay: Antimicrobial activity against viridans group Streptococcus vestibularis at 0.25 ug/ml by broth microdilution method
[51] = system: Streptococcus gordonii; assay: Antimicrobial activity against viridans group Streptococcus gordonii at 1 ug/ml by broth microdilution method
[52] = system: Bacillus cereus; assay: Antimicrobial activity against Bacillus cereus at <= 0.06 ug/ml by broth microdilution method
[53] = system: Bacillus cereus; assay: Antimicrobial activity against Bacillus cereus by broth microdilution method
[54] = system: Streptococcus; assay: Antimicrobial activity against beta hemolytic Streptococci group C at <= 0.06 ug/ml by broth microdilution method
[55] = system: Listeria monocytogenes; assay: Antimicrobial activity against Listeria monocytogenes at 2 ug/ml by broth microdilution method
[56] = system: Corynebacterium jeikeium; assay: Antimicrobial activity against Corynebacterium jeikeium at <= 0.06 ug/ml by broth microdilution method

Question: Which results are given for CC(=O)NC[C@H]1CN(c2ccc(N3CCOCC3)c(F)c2)C(=O)O1 [LINEZOLID]?
Answer: inhibition at 1 µg/mL [1]: 98.9%; inhibition at 0.5 µg/mL [2]: 0.7%; inhibition at 2 µg/mL [3]: 100%; inhibition at 0.12 µg/mL [4]: 0.5%; inhibition at 0.25 µg/mL [5]: 3.4%; inhibition at 1 µg/mL [6]: 94.4%; Inhibition [7]: 0%; inhibition at 0.12 µg/mL [8]: 0.7%; inhibition at 0.5 µg/mL [9]: 23.8%; inhibition at 0.5 µg/mL [10]: 34.5%; MIC50 [11]: 1 µg/mL (≈ 2.96 µM); MIC90 [11]: 1 µg/mL (≈ 2.96 µM); MIC50 [12]: 1 µg/mL (≈ 2.96 µM); MIC90 [12]: 1 µg/mL (≈ 2.96 µM); inhibition at 0.5 µg/mL [13]: 1.7%; MIC50 [14]: 2 µg/mL (≈ 5.93 µM); MIC90 [14]: 2 µg/mL (≈ 5.93 µM); MIC50 [15]: 1 µg/mL (≈ 2.96 µM); MIC90 [15]: 1 µg/mL (≈ 2.96 µM); MIC50 [16]: 1 µg/mL (≈ 2.96 µM); MIC90 [16]: 1 µg/mL (≈ 2.96 µM); MIC50 [17]: 1 µg/mL (≈ 2.96 µM); MIC90 [17]: 2 µg/mL (≈ 5.93 µM); inhibition at 0.12 µg/mL [18]: 5.1%; inhibition at 0.5 µg/mL [19]: 8.2%; inhibition at 0.12 µg/mL [20]: 0%; inhibition at 0.25 µg/mL [21]: 100%; inhibition at 0.25 µg/mL [22]: 4.5%; inhibition at 2 µg/mL [23]: 100%; inhibition at 0.25 µg/mL [24]: 3.3%; inhibition at 0.5 µg/mL [25]: 33.7%; MIC50 [26]: 2 µg/mL (≈ 5.93 µM); MIC90 [26]: 2 µg/mL (≈ 5.93 µM); inhibition at 1 µg/mL [27]: 97.9%; inhibition at 1 µg/mL [28]: 96.4%; inhibition at 0.5 µg/mL [29]: 0%; inhibition at 1 µg/mL [30]: 23.1%; inhibition at 0.5 µg/mL [31]: 92.4%; inhibition at 0.5 µg/mL [32]: 36.8%; inhibition at 0.5 µg/mL [33]: 42.7%; Inhibition [34]: 0%; inhibition at 1 µg/mL [35]: 97.2%; MIC50 [36]: 0.25 µg/mL (≈ 0.741 µM); MIC90 [36]: 0.5 µg/mL (≈ 1.48 µM); inhibition at 0.25 µg/mL [37]: 68.2%; inhibition at 0.25 µg/mL [38]: 16.7%; inhibition at 4 µg/mL [39]: 99.3%; Inhibition [40]: 0%; inhibition at 1 µg/mL [41]: 52.6%; inhibition at 0.12 µg/mL [42]: 1.7%; MIC50 [43]: 1 µg/mL (≈ 2.96 µM); MIC90 [43]: 1 µg/mL (≈ 2.96 µM); inhibition at 2 µg/mL [44]: 100%; inhibition at 0.5 µg/mL [45]: 31.8%; inhibition at 0.5 µg/mL [46]: 0%; Inhibition [47]: 0%; inhibition at 1 µg/mL [48]: 30.3%; inhibition at 0.12 µg/mL [49]: 13.6%; inhibition at 0.25 µg/mL [50]: 0%; inhibition at 1 µg/mL [51]: 100%; Inhibition [52]: 1.7%; MIC50 [53]: 1 µg/mL (≈ 2.96 µM); MIC90 [53]: 1 µg/mL (≈ 2.96 µM); Inhibition [54]: 0%; inhibition at 2 µg/mL [55]: 100%; Inhibition [56]: 1.7%

From ChEMBL document CHEMBL1145534 (2007)
